Laboratory results: ChEMBL document CHEMBL1938312, “Design and combinatorial synthesis of a novel kinase-focused library using click chemistry-based fragment assembly” (Bioorg Med Chem Lett, 2012)
Activity calls are given as the source filed them. No cut-off for these calls is given here.

How the values were obtained:
[1] = biological target: Hepatocyte growth factor receptor (Homo sapiens) (UniProt P08581); experiment: Inhibition of MET at 10 uM by colorimetric analysis
[2] = biological target: Glycogen synthase kinase-3 beta (Homo sapiens, UniProt P49841); experiment: Inhibition of GSK3-beta at 10 uM by colorimetric analysis
[3] = biological target: RAC-alpha serine/threonine-protein kinase (Homo sapiens) (UniProt P31749); experiment: Inhibition of AKT1 at 10 uM by colorimetric analysis
[4] = biological target: Platelet-derived growth factor receptor alpha (Homo sapiens) (UniProt P16234); experiment: Inhibition of PDGFRalpha at 10 uM by colorimetric analysis
[5] = biological target: Epidermal growth factor receptor (Homo sapiens) (UniProt P00533); experiment: Inhibition of EGFR at 10 uM by colorimetric analysis
[6] = biological target: Receptor-type tyrosine-protein kinase FLT3 (Homo sapiens) (UniProt P36888); experiment: Inhibition of FLT3 at 10 uM by colorimetric analysis
[7] = biological target: Ribosomal protein S6 kinase beta-1 (Homo sapiens) (UniProt P23443); experiment: Inhibition of p70S6K at 10 uM by colorimetric analysis
[8] = biological target: Tyrosine-protein kinase ABL1 (Homo sapiens) (UniProt P00519); experiment: Inhibition of Abl at 10 uM by colorimetric analysis
[9] = biological target: 5'-AMP-activated protein kinase subunit gamma-1 (Homo sapiens) (UniProt P54619); experiment: Inhibition of AMPKgamma1 at 10 uM by colorimetric analysis
[10] = biological target: Angiopoietin-1 receptor (Homo sapiens) (UniProt Q02763); experiment: Inhibition of TIE2 at 10 uM by colorimetric analysis
[11] = biological target: Cyclin-dependent kinase 2/cyclin A (Homo sapiens) (UniProt P24941+P20248+P78396); experiment: Inhibition of CDK2/CycA2 at 10 uM by colorimetric analysis; format: protein-complex assay
[12] = biological target: T1, 5'-AMP-activated protein kinase subunit beta-1 (Homo sapiens) (UniProt Q9Y478); experiment: Inhibition of AMPKbeta1 at 10 uM by colorimetric analysis
T1 sequence (whole entry): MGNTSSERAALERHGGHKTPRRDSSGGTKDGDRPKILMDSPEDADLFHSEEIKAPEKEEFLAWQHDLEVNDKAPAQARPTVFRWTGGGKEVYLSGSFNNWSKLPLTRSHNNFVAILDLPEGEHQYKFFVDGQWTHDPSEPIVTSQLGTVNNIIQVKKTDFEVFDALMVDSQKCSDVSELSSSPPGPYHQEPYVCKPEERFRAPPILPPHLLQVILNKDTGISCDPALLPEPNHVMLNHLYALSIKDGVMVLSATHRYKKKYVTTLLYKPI

[13] = biological target: T2, Receptor-type tyrosine-protein kinase FLT3 (Homo sapiens, UniProt P36888); experiment: Inhibition of FLT3 by colorimetric analysis
T2 sequence (P36888 whole entry): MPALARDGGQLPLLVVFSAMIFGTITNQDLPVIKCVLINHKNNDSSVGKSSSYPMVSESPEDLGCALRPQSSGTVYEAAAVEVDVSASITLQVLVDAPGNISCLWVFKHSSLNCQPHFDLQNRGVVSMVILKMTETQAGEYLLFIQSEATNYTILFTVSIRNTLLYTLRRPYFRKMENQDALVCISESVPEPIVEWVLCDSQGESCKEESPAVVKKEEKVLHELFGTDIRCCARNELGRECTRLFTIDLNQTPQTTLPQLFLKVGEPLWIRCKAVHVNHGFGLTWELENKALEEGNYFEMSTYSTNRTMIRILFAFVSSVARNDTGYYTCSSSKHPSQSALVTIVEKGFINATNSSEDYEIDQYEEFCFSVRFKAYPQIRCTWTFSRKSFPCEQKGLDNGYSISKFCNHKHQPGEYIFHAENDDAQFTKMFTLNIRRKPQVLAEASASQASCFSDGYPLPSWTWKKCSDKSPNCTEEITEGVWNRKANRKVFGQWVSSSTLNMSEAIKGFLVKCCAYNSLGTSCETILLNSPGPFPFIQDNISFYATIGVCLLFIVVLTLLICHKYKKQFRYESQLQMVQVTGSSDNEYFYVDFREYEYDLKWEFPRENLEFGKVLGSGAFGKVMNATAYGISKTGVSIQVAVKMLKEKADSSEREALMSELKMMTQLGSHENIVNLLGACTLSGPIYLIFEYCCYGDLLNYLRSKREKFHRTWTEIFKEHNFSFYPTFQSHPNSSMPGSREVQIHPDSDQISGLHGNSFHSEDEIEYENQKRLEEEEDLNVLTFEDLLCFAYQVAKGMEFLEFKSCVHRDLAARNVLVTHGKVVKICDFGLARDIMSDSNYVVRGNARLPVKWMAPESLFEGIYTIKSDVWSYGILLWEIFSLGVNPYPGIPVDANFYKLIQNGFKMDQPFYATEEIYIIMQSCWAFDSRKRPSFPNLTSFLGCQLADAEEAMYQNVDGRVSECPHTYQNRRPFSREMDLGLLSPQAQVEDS

[14] = biological target: Rho-associated protein kinase 1 (Homo sapiens) (UniProt Q13464); experiment: Inhibition of ROCK1 at 10 uM by colorimetric analysis
[15] = biological target: T3, Serine/threonine-protein kinase Chk1 (Homo sapiens) (UniProt O14757); experiment: Inhibition of CHK1 at 10 uM by colorimetric analysis
T3 sequence (whole entry): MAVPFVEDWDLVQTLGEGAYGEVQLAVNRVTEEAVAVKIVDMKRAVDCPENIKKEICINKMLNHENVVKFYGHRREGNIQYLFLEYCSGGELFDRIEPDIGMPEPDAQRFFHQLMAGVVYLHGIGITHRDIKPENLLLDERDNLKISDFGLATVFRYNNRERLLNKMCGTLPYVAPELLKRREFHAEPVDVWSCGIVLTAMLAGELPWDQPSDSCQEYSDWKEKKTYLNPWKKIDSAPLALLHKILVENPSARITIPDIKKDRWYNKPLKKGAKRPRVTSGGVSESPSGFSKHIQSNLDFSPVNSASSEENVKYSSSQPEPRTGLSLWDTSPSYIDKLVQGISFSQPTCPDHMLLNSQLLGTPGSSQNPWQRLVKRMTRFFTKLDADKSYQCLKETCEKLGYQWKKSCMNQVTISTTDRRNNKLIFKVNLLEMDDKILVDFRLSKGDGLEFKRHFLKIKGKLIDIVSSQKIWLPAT

[16] = biological target: Casein kinase I isoform epsilon (Homo sapiens) (UniProt P49674); experiment: Inhibition of CK1epsilon at 10 uM by colorimetric analysis
Casein kinase I isoform epsilon (Homo sapiens), sequence (P49674 whole entry, looked up, canonical isoform): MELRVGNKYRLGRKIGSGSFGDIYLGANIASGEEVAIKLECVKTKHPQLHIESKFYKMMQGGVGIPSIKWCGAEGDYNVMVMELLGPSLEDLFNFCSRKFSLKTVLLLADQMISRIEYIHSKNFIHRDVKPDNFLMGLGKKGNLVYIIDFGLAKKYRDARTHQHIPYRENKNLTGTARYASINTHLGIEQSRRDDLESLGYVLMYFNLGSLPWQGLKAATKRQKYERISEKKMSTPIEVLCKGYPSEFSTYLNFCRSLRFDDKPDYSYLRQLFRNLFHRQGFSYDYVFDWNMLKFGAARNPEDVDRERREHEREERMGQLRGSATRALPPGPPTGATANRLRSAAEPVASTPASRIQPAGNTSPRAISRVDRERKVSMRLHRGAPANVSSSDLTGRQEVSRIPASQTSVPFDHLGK

Glycogen synthase kinase-3 beta, sequence (P49841 whole entry, looked up): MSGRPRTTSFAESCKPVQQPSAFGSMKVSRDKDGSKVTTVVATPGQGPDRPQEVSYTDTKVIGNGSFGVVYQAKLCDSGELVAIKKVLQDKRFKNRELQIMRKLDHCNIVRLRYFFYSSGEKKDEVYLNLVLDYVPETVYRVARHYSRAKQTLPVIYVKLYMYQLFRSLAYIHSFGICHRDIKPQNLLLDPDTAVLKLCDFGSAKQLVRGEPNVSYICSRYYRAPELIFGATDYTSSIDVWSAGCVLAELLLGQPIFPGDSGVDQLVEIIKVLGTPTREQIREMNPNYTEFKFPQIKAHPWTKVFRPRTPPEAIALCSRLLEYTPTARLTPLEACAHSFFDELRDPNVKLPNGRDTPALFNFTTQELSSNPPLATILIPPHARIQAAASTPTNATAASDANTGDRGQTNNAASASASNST
RAC-alpha serine/threonine-protein kinase (Homo sapiens), sequence (P31749 whole entry): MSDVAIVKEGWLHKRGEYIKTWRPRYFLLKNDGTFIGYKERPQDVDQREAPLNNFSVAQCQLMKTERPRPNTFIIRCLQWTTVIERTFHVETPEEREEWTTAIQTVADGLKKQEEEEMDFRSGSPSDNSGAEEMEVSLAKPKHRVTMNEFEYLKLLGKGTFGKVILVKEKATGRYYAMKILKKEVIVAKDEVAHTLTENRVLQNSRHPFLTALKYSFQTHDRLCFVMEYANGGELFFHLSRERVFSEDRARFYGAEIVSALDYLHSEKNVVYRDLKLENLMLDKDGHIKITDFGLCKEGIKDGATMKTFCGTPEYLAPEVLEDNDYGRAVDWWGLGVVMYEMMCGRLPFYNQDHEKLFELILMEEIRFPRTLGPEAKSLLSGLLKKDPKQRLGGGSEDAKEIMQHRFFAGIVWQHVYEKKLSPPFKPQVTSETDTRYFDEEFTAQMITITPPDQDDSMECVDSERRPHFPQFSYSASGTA
Hepatocyte growth factor receptor (Homo sapiens), sequence (P08581 whole entry): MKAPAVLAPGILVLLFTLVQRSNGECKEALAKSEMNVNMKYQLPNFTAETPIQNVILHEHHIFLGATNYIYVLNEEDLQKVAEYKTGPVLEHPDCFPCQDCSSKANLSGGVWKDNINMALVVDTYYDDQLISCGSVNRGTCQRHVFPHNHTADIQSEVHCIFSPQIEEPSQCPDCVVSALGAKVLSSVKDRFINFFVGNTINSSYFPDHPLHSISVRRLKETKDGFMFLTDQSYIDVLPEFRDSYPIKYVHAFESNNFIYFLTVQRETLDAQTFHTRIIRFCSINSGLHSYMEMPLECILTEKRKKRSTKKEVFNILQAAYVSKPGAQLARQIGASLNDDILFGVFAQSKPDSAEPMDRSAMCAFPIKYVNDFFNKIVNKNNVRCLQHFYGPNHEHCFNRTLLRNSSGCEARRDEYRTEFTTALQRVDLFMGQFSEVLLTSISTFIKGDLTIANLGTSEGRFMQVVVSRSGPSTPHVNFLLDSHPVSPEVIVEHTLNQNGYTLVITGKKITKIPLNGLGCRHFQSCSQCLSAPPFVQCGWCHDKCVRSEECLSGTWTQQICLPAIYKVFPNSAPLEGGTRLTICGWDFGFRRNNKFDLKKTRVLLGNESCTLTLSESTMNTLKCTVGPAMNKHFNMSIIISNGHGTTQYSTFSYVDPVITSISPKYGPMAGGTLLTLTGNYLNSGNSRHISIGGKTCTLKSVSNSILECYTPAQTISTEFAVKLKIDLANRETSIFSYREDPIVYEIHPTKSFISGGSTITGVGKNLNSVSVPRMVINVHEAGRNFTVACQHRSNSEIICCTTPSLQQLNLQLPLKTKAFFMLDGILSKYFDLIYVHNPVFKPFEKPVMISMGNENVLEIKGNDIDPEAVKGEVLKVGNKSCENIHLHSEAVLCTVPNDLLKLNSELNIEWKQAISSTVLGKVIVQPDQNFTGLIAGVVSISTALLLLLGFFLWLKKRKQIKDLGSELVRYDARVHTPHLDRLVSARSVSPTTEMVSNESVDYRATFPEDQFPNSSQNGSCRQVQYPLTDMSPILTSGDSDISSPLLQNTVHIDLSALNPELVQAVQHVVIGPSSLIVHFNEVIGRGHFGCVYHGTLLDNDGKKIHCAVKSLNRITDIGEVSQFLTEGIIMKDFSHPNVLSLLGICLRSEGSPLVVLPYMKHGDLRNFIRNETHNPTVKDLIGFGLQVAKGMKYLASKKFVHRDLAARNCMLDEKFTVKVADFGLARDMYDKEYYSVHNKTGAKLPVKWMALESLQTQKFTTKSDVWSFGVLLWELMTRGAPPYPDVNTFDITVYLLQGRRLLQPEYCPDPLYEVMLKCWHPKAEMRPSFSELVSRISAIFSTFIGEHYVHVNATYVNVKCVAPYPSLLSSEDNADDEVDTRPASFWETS
Ribosomal protein S6 kinase beta-1 (Homo sapiens), sequence (P23443 whole entry, looked up): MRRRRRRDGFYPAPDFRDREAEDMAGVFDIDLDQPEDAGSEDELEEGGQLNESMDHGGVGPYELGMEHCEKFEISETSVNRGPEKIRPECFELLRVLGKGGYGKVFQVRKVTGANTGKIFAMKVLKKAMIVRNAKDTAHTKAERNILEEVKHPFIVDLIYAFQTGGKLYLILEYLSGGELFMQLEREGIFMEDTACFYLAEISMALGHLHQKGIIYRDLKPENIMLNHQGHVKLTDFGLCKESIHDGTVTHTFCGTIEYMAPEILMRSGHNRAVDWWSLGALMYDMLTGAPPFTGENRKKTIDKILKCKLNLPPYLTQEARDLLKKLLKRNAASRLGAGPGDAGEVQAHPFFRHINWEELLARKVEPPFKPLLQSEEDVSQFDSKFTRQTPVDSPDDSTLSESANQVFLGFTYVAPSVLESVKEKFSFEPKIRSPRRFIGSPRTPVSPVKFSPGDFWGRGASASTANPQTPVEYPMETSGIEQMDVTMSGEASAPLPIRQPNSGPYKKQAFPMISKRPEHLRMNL
Angiopoietin-1 receptor (Homo sapiens), sequence (Q02763 whole entry): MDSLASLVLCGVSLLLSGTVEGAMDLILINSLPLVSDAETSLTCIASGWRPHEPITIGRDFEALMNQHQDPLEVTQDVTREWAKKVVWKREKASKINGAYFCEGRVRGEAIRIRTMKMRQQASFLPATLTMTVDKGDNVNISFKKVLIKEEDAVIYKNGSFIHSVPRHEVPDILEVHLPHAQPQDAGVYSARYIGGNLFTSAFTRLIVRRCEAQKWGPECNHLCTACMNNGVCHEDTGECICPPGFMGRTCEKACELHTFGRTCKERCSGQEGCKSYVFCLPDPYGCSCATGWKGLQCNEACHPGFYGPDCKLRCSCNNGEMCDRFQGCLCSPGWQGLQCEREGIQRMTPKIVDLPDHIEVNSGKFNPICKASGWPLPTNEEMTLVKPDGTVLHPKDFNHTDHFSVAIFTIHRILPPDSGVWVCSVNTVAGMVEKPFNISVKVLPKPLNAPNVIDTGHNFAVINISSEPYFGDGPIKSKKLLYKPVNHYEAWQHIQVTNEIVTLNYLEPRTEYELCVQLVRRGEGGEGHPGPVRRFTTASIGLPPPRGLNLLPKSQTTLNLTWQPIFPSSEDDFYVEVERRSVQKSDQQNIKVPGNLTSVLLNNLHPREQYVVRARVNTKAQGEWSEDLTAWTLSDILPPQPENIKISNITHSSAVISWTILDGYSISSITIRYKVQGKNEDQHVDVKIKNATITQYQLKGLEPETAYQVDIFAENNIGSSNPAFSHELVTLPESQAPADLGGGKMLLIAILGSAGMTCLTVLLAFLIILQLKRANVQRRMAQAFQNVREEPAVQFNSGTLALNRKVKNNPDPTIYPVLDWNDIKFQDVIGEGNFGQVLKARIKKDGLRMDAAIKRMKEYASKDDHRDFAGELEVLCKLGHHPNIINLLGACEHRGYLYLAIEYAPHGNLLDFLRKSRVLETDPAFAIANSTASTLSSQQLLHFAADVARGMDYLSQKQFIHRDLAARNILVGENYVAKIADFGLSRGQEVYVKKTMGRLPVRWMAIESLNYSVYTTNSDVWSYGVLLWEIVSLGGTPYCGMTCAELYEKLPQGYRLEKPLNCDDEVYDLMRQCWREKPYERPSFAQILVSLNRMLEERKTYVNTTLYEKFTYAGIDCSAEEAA
5'-AMP-activated protein kinase subunit gamma-1 (Homo sapiens), sequence (P54619 whole entry): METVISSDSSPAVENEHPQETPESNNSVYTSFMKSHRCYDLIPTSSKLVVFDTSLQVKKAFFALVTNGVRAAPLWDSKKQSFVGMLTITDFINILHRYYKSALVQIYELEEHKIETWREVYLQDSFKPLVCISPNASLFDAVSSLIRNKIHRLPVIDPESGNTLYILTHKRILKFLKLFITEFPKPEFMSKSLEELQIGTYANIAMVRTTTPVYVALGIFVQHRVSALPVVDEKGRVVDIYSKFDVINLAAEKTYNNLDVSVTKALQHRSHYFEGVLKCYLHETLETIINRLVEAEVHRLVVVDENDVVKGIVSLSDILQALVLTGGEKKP

inhibition [1]	inhibition [2]	inhibition [3]	inhibition [4]	inhibition [5]	inhibition [6]	inhibition [7]	inhibition [8]	inhibition [9]	inhibition [10]	inhibition [11]	inhibition [12]	IC50 [13] [µM]	inhibition [14]	inhibition [15]	inhibition [16]	Structure (SMILES)
inactive	Active	Active	inactive	inactive	Active	Active	inactive	Active	inactive	Active	Active	10.5	Active	Active	Active	Clc1cccc(-n2cc(-c3ccncc3)nn2)c1
inactive	Active	Active	inactive	inactive	Active	Active	inactive	Active	inactive	Active	Active	4.4	Active	Active	Active	Clc1cccc(-n2nncc2-c2ccncc2)c1
inactive	Active	Active	inactive	inactive	Active	Active	inactive	Active	inactive	Active	Active	5.8	Active	Active	Active	Clc1ccc(-n2cc(-c3ccncc3)nn2)cc1
inactive	Active	Active	inactive	inactive	Active	Active	inactive	Active	inactive	Active	Active	1.7	Active	Active	Active	Clc1ccc(-n2nncc2-c2ccncc2)cc1
